Six compounds from US5001228A, “Bis-alkylamide azo polymerization initiators” (Wako Pure Chemical Industries, Ltd., priority 1988, dated 1991) can be followed below.

Data set [1] can be described thus: Solubility (15° C.). It is filed as physicochemical. To be noted: for Solubility in DMF: dimethylformamide (DMF); for solubility: water.
The nature of data set [2]: Decomposition rate constant. The class given is physicochemical. The settings on record: 80° C.

Take `C=CCNC(=O)C(C)(C)N=NC(C)(C)C(=O)NCC=C` [Compound (2), 2,2'-azobis[N-(2-propenyl)-2-methylpropionamide]]: in data set [1], the Solubility in acetone was not below 10%, the “Solubility in DMF” value is listed as not below 10%, the Solubility in methanol is recorded as not below 10% and the Solubility in toluene is not below 10%. Also, the solubility (in general, how much of the substance goes into solution per volume) in data set [1] is not above 10000 µg/mL. Also, the Decomposition rate constant in data set [2] was 2.80 × 10^-6 sec.^-1.
On to `CC(C)(N=NC(C)(C)C(=O)NCc1ccc(Cl)cc1)C(=O)NCc1ccc(Cl)cc1` [Compound (3), 2,2'-azobis[N-(p-chlorobenzyl)-2-methylpropionamide]], for which, in data set [1], the Solubility in acetone is listed as not below 10%, the “Solubility in DMF” value is not below 10%, the Solubility in methanol is approximately 5% and the Solubility in toluene is not above 1%. Besides, the solubility in data set [1] was not above 10000 µg/mL.
As for `CC(C)(N=NC(C)(C)C(=O)NCc1cccnc1)C(=O)NCc1cccnc1` [Compound (4), 2,2'-azobis[N-[(pyridin-3-yl)methyl]-2-methylpropionamide]·2H2 O], in data set [1], the Solubility in acetone came to 3%, the “Solubility in DMF” value is 1.5%, the Solubility in methanol is not below 10% and the solubility was not above 10000 µg/mL.
With `CC(C)(N=NC(C)(C)C(=O)NCc1ccncc1)C(=O)NCc1ccncc1` [Compound (5), 2,2'-azobis[N-[(pyridin-4-yl)methyl]-2-methylpropionamide]·2H2 O], in data set [1], the Solubility in acetone is reported as not above 1%, the “Solubility in DMF” value is listed as 3%, the Solubility in methanol is approximately 9% and the solubility was not above 10000 µg/mL.
As for `CC(C)(N=NC(C)(C)C(=O)NCC1CCNCC1)C(=O)NCC1CCNCC1` [Compound (6), 2,2'-azobis[N-[(piperidin-4-yl)methyl]2-methylpropionamide]·2HCl], in data set [1], the Solubility in acetone is reported as not above 1%, the “Solubility in DMF” value is on record as not above 1%, the Solubility in methanol is recorded as not below 10% and the Solubility in toluene is not above 1%. Besides, the solubility in data set [1] was not below 100000 µg/mL.
In the case of `CC(C)(N=NC(C)(C)C(=O)NCCN1CCNCC1)C(=O)NCCN1CCNCC1` [Compound (7)], in data set [1], the Solubility in acetone is recorded as not above 1%, the “Solubility in DMF” value is 1.5%, the Solubility in methanol was not below 10% and the solubility was not below 100000 µg/mL.
